Results as given in patent US8278461B2, “Stable amorphous form of carvedilol dihydrogen phosphate with stabilizer” (Lupin Limited, priority 2007, dated 2012).
Like-named read-outs stand apart in the source and are kept apart here.

How the values were obtained:
[1] = Glass transition temperature of the amorphous form; assay type: physicochemical
Method: We have filed an Indian patent application 292/KOL/2007 dated 27 Feb. 2007 in Indian Patent Office on amorphous form of carvedilol dihydrogen phosphate and the process for its preparation. The amorphous form obtained by the process described in this application has glass transition temperature below 60° C. The amorphous solids in general having low glass transition temperature not only create complications during formulation but also has stability related problems on storage. The glass transition temperature is the temperature, below which the physical properties of amorphous materials vary in a manner similar to those of a crystalline phase (glassy state), and above which amorphous materials behave like liquids (rubbery state). A materials glass transition temperature is the temperature below which molecules have little relative mobility. Thus, there exist a need to develop stable amorphous form of carvedilol dihydrogen phosphate which have improved characteristics. […] The amorphous carvedilol obtained without stabiliser having glass transition temperature 55-56° C. while the stable amorphous form of the present invention has glass transition temperature in the range between 76 to 185° C. The phosphorous content of the stable amorphous form of the present invention is between 18-20% on anhydrous basis.

[2] = amorphous form obtained by the process of Indian application 292/KOL/2007; cited from earlier work

COc1ccccc1OCCNCC(O)COc1cccc2[nH]c3ccccc3c12.O=P(O)(O)O (centres unmarked) [carvedilol dihydrogen phosphate]
glass transition temperature [1]: 55-56 °C | glass transition temperature [2]: below 60 °C
